Key:
[1] = biological target: p38 MAPKα isoform (MAPK14) (Homo sapiens (Human), UniProt Q16539); test: p38 MAPKα enzyme inhibition (FRET, Z-LYTE), Method 1; format: biochemical; details: Method 1 (Table 4a1)
Experimental: The enzyme inhibitory activities of compounds disclosed herein are determined by FRET using synthetic peptides labelled with both donor and acceptor fluorophores (Z-LYTE, Invitrogen Ltd., Paisley, UK).
The inhibitory activities of test compounds against the p38 MAPKα isoform (MAPK14: Invitrogen), are evaluated indirectly by determining the level of activation/phosphorylation of the down-stream molecule, MAPKAP-K2. The p38 MAPKα protein (80 ng/mL, 2.5 μL) is mixed with the test compound (2.5 μL of either 4 μg/mL, 0.4 μg/mL, 0.04 μg/mL or 0.004 μg/mL) for 2 hr at RT. […] The mixture is incubated for 1 hr at RT. Development reagent (protease, 5 μL) is added for 1 hr prior to detection in a fluorescence microplate reader (Varioskan® Flash, ThermoFisher Scientific).
In all cases, the site-specific protease cleaves non-phosphorylated peptide only and eliminates the FRET signal. Phosphorylation levels of each reaction are calculated using the ratio of coumarin emission (donor) over fluorescein emission (acceptor), for which high ratios indicate high phosphorylation and low ratios indicate low phosphorylation levels.

[2] = system: Differentiated U937 cells; test: (l) Cell viability: MTT assay; format: cell-based, human; details: 1 μg/mL
Experimental: Differentiated U937 cells are pre-incubated with each test compound (final concentration 1 μg/mL or 10 μg/mL in 200 μL media indicated below) under two protocols: the first for 4 hr in 5% FCS RPMI1640 media and the second in 10% FCS RPMI1640 media for 24 h. The supernatant is replaced with new media (200 μL) and MTT stock solution (10 μL, 5 mg/mL) is added to each well. After incubation for 1 hr the media are removed, DMSO (200 μL) is added to each well and the plates are shaken lightly for 1 hr prior to reading the absorbance at 550 nm. The percentage loss of cell viability is calculated for each well relative to vehicle (0.5% DMSO) treatment. Consequently an apparent increase in cell viability for drug treatment relative to vehicle is tabulated as a negative percentage.

p38 MAPKα isoform (MAPK14), sequence (Q16539 whole entry, canonical isoform): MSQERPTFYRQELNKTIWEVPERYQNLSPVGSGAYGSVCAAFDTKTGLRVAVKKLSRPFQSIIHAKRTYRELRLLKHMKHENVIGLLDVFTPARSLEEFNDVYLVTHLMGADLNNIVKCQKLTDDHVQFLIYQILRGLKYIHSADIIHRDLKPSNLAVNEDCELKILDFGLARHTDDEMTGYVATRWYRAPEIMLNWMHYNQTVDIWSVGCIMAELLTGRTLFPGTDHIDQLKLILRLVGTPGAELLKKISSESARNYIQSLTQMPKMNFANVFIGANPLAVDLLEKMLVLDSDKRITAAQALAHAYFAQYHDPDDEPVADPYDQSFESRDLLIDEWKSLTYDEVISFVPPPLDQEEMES

| Structure (SMILES) | IC50 [1] [nM] | Cell viability at time point in d-U937 cells 4 h [2] | Cell viability at time point in d-U937 cells 24 h [2] |
| --- | --- | --- | --- |
| COc1ccc(-n2nc(C(C)(C)C)cc2NC(=O)Nc2ccc(Oc3ccnc(Nc4cc(Br)cc(C(N)=O)c4)n3)c3ccccc23)cc1 [Example 42, 3-bromo-5-((4-((4-(3-(3-(tert-butyl)-1-(4-methoxyphenyl)-1H-pyrazol-5-yl)ureido)naphthalen-1-yl)oxy)pyrimidin-2-yl)amino)benzamide] | 167 | −ve (−ve and +ve indicate that the value is below and above respectively, the no significant effect threshold, defined as 30% inhibition at 1 μg/mL at the time point indicated.) | −ve (−ve and +ve indicate that the value is below and above respectively, the no significant effect threshold, defined as 30% inhibition at 1 μg/mL at the time point indicated.) |
| COc1cc(Nc2nccc(Oc3ccc(NC(=O)Nc4cc(C(C)(C)C)nn4-c4ccc(C)cc4)c4ccccc34)n2)cc(C(=O)NCCN(C)C)c1 [Example 43, 3-((4-((4-(3-(3-(tert-butyl)-1-(p-tolyl)-1H-pyrazol-5-yl)ureido)naphthalen-1-yl)oxy)pyrimidin-2-yl)amino)-N-(2-(dimethylamino)ethyl)-5-methoxybenzamide] | 4 | −ve (−ve and +ve indicate that the value is below and above respectively, the no significant effect threshold, defined as 30% inhibition at 1 μg/mL at the time point indicated.) | −ve (−ve and +ve indicate that the value is below and above respectively, the no significant effect threshold, defined as 30% inhibition at 1 μg/mL at the time point indicated.) |
| COc1cc(Nc2nccc(Oc3ccc(NC(=O)Nc4cc(C(C)C)nn4-c4ccc(C)cc4)c4ccccc34)n2)cc(C(=O)N(C)CCN2CCOCC2)c1 [Example 68, 3-((4-((4-(3-(3-isopropyl-1-(p-tolyl)-1H-pyrazol-5-yl)ureido)naphthalen-1-yl)oxy)pyrimidin-2-yl)amino)-5-methoxy-N-methyl-N-(2-morpholinoethyl)benzamide] | < 1 | −ve (−ve and +ve indicate that the value is below and above respectively, the no significant effect threshold, defined as 30% inhibition at 1 μg/mL at the time point indicated.) | −ve (−ve and +ve indicate that the value is below and above respectively, the no significant effect threshold, defined as 30% inhibition at 1 μg/mL at the time point indicated.) |
| COCCNC(=O)c1cc(Nc2nccc(Oc3ccc(NC(=O)Nc4cc(C(C)C)nn4-c4ccc(C)cc4)c4ccccc34)n2)cc(OC)c1 [Example 66, 3-((4-((4-(3-(3-isopropyl-1-(p-tolyl)-1H-pyrazol-5-yl)ureido)naphthalen-1-yl)oxy)pyrimidin-2-yl)amino)-5-methoxy-N-(2-methoxyethyl)benzamide] | 24 | −ve (−ve and +ve indicate that the value is below and above respectively, the no significant effect threshold, defined as 30% inhibition at 1 μg/mL at the time point indicated.) | −ve (−ve and +ve indicate that the value is below and above respectively, the no significant effect threshold, defined as 30% inhibition at 1 μg/mL at the time point indicated.) |
| Cc1ccc(-n2nc(C3(C)COC3)cc2NC(=O)Nc2ccc(Oc3ccnc(Nc4cccc(C(=O)NCCN5CCOCC5)c4)n3)c3ccccc23)cc1 [Example 22, 3-((4-((4-(3-(3-(3-methyloxetan-3-yl)-1-(p-tolyl)-1H-pyrazol-5-yl)ureido)naphthalen-1-yl)oxy)pyrimidin-2-yl)amino)-N-(2-morpholinoethyl)benzamide] | < 1 | −ve (−ve and +ve indicate that the value is below and above respectively, the no significant effect threshold, defined as 30% inhibition at 1 μg/mL at the time point indicated.) | −ve (−ve and +ve indicate that the value is below and above respectively, the no significant effect threshold, defined as 30% inhibition at 1 μg/mL at the time point indicated.) |
| COc1cc(Nc2nccc(Oc3ccc(NC(=O)Nc4cc(C(C)C)nn4-c4ccc(C)cc4)c4ccccc34)n2)cc(C(=O)NCCN(C)C)c1 [Example 5, N-(2-(Dimethylamino)ethyl)-3-((4-((4-(3-(3-isopropyl-1-(p-tolyl)-1H-pyrazol-5-yl)ureido)naphthalen-1-yl)oxy)pyrimidin-2-yl)amino)-5-methoxybenzamide] | 1 | −ve (−ve and +ve indicate that the value is below and above respectively, the no significant effect threshold, defined as 30% inhibition at 1 μg/mL at the time point indicated.) | −ve (−ve and +ve indicate that the value is below and above respectively, the no significant effect threshold, defined as 30% inhibition at 1 μg/mL at the time point indicated.) |
| COc1ccc(-n2nc(C(C)C)cc2NC(=O)Nc2ccc(Oc3ccnc(Nc4cc(C(=O)NCCO)ccc4OC)n3)c3ccccc23)cc1 [Example 34, N-(2-hydroxyethyl)-3-((4-((4-(3-(3-isopropyl-1-(4-methoxyphenyl)-1H-pyrazol-5-yl)ureido)naphthalen-1-yl)oxy)pyrimidin-2-yl)amino)-4-methoxybenzamide] | < 1 | +ve (−ve and +ve indicate that the value is below and above respectively, the no significant effect threshold, defined as 30% inhibition at 1 μg/mL at the time point indicated.) | −ve (−ve and +ve indicate that the value is below and above respectively, the no significant effect threshold, defined as 30% inhibition at 1 μg/mL at the time point indicated.) |
| COc1ccc(-n2nc(C(C)C)cc2NC(=O)Nc2ccc(Oc3ccnc(Nc4cc(OC)cc(C(=O)NCCN5CCOCC5)c4)c3)c3ccccc23)cc1 [Example 15, 3-((4-((4-(3-(3-isopropyl-1-(4-methoxyphenyl)-1H-pyrazol-5-yl)ureido)naphthalen-1-yl)oxy)pyridin-2-yl)amino)-5-methoxy-N-(2-morpholinoethyl)benzamide] | 7 | −ve (−ve and +ve indicate that the value is below and above respectively, the no significant effect threshold, defined as 30% inhibition at 1 μg/mL at the time point indicated.) | −ve (−ve and +ve indicate that the value is below and above respectively, the no significant effect threshold, defined as 30% inhibition at 1 μg/mL at the time point indicated.) |
| COc1cc(Nc2nccc(Oc3ccc(NC(=O)Nc4cc(C(C)C)nn4-c4ccc(C)cc4)c4ccccc34)n2)cc(C(=O)N2CCN(C)CC2)c1 [Example 69, 1-(3-isopropyl-1-(p-tolyl)-1H-pyrazol-5-yl)-3-(4-((2-((3-methoxy-5-(4-methylpiperazine-1-carbonyl)phenyl)amino)pyrimidin-4-yl)oxy)naphthalen-1-yl)urea] | 2 | −ve (−ve and +ve indicate that the value is below and above respectively, the no significant effect threshold, defined as 30% inhibition at 1 μg/mL at the time point indicated.) | −ve (−ve and +ve indicate that the value is below and above respectively, the no significant effect threshold, defined as 30% inhibition at 1 μg/mL at the time point indicated.) |
| COc1ccc(C(=O)NCCN2CCOCC2)cc1Nc1nccc(Oc2ccc(NC(=O)Nc3cc(C(C)(C)C)nn3-c3ccc(C)cc3)c3ccccc23)n1 [Example 31, 3-((4-((4-(3-(3-(tert-butyl)-1-(p-tolyl)-1H-pyrazol-5-yl)ureido)naphthalen-1-yl)oxy)pyrimidin-2-yl)amino)-4-methoxy-N-(2-morpholinoethyl)benzamide] | 8 | −ve (−ve and +ve indicate that the value is below and above respectively, the no significant effect threshold, defined as 30% inhibition at 1 μg/mL at the time point indicated.) | −ve (−ve and +ve indicate that the value is below and above respectively, the no significant effect threshold, defined as 30% inhibition at 1 μg/mL at the time point indicated.) |
| COc1ccc(-n2nc(C(C)C)cc2NC(=O)Nc2ccc(Oc3cc(Nc4cc(OC)cc(C(=O)NCCN5CCOCC5)c4)ncn3)c3ccccc23)cc1 [Example 14, 3-((6-((4-(3-(3-isopropyl-1-(4-methoxyphenyl)-1H-pyrazol-5-yl)ureido)naphthalen-1-yl)oxy)pyrimidin-4-yl)amino)-5-methoxy-N-(2-morpholinoethyl)benzamide] | < 1 | −ve (−ve and +ve indicate that the value is below and above respectively, the no significant effect threshold, defined as 30% inhibition at 1 μg/mL at the time point indicated.) | +ve (−ve and +ve indicate that the value is below and above respectively, the no significant effect threshold, defined as 30% inhibition at 1 μg/mL at the time point indicated.) |

Source: patent publication US9701670B2, “Pyrazolyl-ureas as kinase inhibitors” (RESPIVERT LIMITED, priority 2013, dated 2017)
